Legend:
[1] = Influencing factor stability study of crystal forms; assay type: physicochemical; details: 30-day influencing factor experiments
Description: Example 50. Influencing Factor Stability Study of Crystal Forms Free-state samples were spread out, left to stand in open flasks, and subjected to 30-day stability tests under light exposure (4500 Lux), high temperature (40 °C and 60 °C), and high humidity (RH 75% and RH 92.5%) conditions.

[2] = Long-term/accelerated stability of crystal forms; assay type: physicochemical; details: for Purity%: sealed in aluminum foil bag; for Crystal form: after standing up to 3 months
Description: Free-state samples were sealed in aluminum foil bags and left to stand under 25 °C/60% RH and 40 °C/75% RH conditions to test their stability.

[3] = Hygroscopicity study of free-state crystal forms (DVS); assay type: physicochemical
Description: Testing was performed using Surface Measurement Systems advantage 2, at 25 °C, with the humidity changing from 50% -95%-0%-95%-50%RH, in steps of 10%. The criterion was that each gradient mass change dM/dT is less than 0.002%, TMAX 360 min, two cycles.
Surface Measurement Systems intrinsic DVS was adopted. At 25 °C, the crystal forms were tested in a humidity range of 0%-95%, with increments of 10%. The criterion was that each gradient mass change dM/dT is less than 0.002%, TMAX 360 min, two cycles.

[4] = system: DPX2 (HepG2 cells were stably transfected with the human PXR gene and the fluorescent reporter gene) cells; experiment: Cell viability in the PXR induction assay (CellTiter-Fluor); assay type: cell-based
Description: • 1. The potential of the test compounds to induce the activity of drug metabolism enzymes through in vitro activation of PXR was evaluated. […] […] Experimental procedures • 3.1. Preparation for plating • 1) 50 mL of FBS was added to 450 mL of cell culture medium. • 2) DPX2 cells were cultured in a T-75 culture flask in a 37 °C, 5% CO2 incubator with 95% relative humidity. When covering 80-90% of the bottom of the culture flask, the cells were digested. • 3) The top layer of cells cultured in the T-75 culture flask was washed with 8 mL of PBS, and the PBS was pipetted off. The cells were digested with 3 mL of pancreatin at 37 °C for about 5 min or until they were floating in the pancreatin. 10 mL (excessive) of a serum-containing culture medium was added to neutralize the pancreatin. • 4) The cell suspension was transferred to a conical-bottomed centrifuge tube and centrifuged at 120 g for 10 min. The cells were suspended in the plating culture medium, and the concentration was adjusted to 4 × 10^5 cells/mL. The diluted cells were added to a 96-well cell culture plate at 100 µL/well. The culture plate was placed in an incubator and incubated at 37 °C for 24 h before the PXR activation experiment. • 3.2. […] […] The final concentration of DMSO was 0.1%. 1 µL of DMSO was added to a well containing 1 mL of pre-incubated culture medium as a solvent control. • 2) The cell culture plate was taken out of the incubator, and the culture medium was discarded. The test compounds and the positive compound were added to appropriate wells at 100 µL/well, and each group was tested in duplicate. The cell plate was placed in an incubator and incubated for 24 h. • 3.3. Quantification of PXR activation • 1) After […] of compound treatment, PXR activation was quantified for the culture. • 2) The CellTiter-Fluor™ cell viability assay kit and the One-Glo Luciferase reagent were equilibrated to room temperature. The GF-AFC (10 µL) substrate was added to Assay Buffer (10 mL) to form a 2× reagent, and the reagent was then diluted to 1× with 10 mL of PBS; the ONE-Glo substrate was added to the ONE-Glo Luciferase Assay buffer. • 3) The cell culture plate was taken out of the incubator, and the culture medium in each well was discarded. The plate was washed twice with PBS. The 1× CellTiter-Fluor™ reagent was added to a sterilized reagent reservoir, and 50 µL was transferred to each well using a multi-channel pipette. The plate was incubated at 37 °C for 30 min. • 4) The 96-well cell plate was taken out of the incubator, and the fluorescence in each well was measured using a microplate reader put in the fluorescence mode at an excitation wavelength of 400 nm and an emission wavelength of 505 nm. • 5) The ONE-Glo reagent was poured into a reagent reservoir, and then 50 µL was transferred to each well using a multi-channel pipette. The reagent was gently and well mixed, and the mixture was incubated and well mixed at room temperature for 5 min. After the incubation, the luminescence in each well was measured using a luminometer.
The calculation formula for cell viability: Percent cell viability (%) = I(sample)/(I(vehicle) × 100 [formula]
I(sample) represents the fluorescence intensity of the sample, and I(vehicle) represents the fluorescence intensity of 0.1% DMSO to cells.

C[C@H]1COc2c(-c3nc(N[C@@H]4CCOC[C@H]4O)ncc3Cl)cc(F)c3nc(C(C)(C)O)n1c23 [Crystal form H, (3S,4R)-4-((5-chloro-4-((S)-8-fluoro-2-(2-hydroxypropan-2-yl)-3-methyl-3,4-dihydro-5-oxa-1,2a-diazaacenaphthylen-6-yl)pyrimidin-2-yl)amino)tetrahydro-2H-pyran-3-ol]
physical stability [1]: good physical stability | chemical stability ([1]; high temperature and high humidity conditions): good chemical stability | Purity% ([2]; 25 °C/60% RH, 1 month): 99.95% | Purity% ([2]; 25 °C/60% RH, 2 months): 99.95% | Purity% ([2]; 25 °C/60% RH, 3 months): 99.95% | Purity% ([2]; 25 °C/60% RH, 14 days): 99.95% | Purity% ([2]; 25 °C/60% RH, Initial): 99.95% | Crystal form ([2]; 25 °C/60% RH): No change | Purity% ([2]; 40 °C/75% RH, 1 month): 99.95% | Purity% ([2]; 40 °C/75% RH, 2 months): 99.95% | Purity% ([2]; 40 °C/75% RH, 3 months): 99.95% | Purity% ([2]; 40 °C/75% RH, 14 days): 99.95% | Purity% ([2]; 40 °C/75% RH, Initial): 99.95% | Crystal form ([2]; 40 °C/75% RH): No change | physical stability and chemical stability ([2]; long-term accelerated conditions for 3 months): good physical stability and chemical stability | 0.0% RH-80.0% RH (hygroscopicity, mass change) ([3]; DVS, 25 °C, 0.0% RH-80.0% RH): 0.28% | Crystal form ([3]; crystal form after DVS test): No change

CO[C@H]1/C=C/O[C@@]2(C)Oc3c(C)c(O)c4c(O)c(c(/C=N/N5CCN(C)CC5)c(O)c4c3C2=O)NC(=O)/C(C)=C\C=C\[C@H](C)[C@H](O)[C@@H](C)[C@@H](O)[C@@H](C)[C@H](OC(C)=O)[C@@H]1C [Rifampicin, reference compound]
Cell viability (%) ([4]; compound concentration 0.0195 µM): 103.39% | Cell viability (%) ([4]; compound concentration 20.0 µM): 93.07%
